Reference: US9072901B2, “Cardiac neuromodulation and methods of using same” (The Board of Regents of the University of Oklahoma, priority 2001, dated 2015)
No end group written: not given here.

Assays:
[1] = system: right atrial neurons; experiment: Ventricular unipolar electrograms (ST segment) with ANG II administered to right atrial neurons, ameroid constrictor chronic ischemia; format: in vivo; conditions: ANG II 40 μg/min
Method: Under basal conditions, electrograms display slight ST segment displacement (panel B). Transient rapid ventricular pacing (240/min for 1 min), used to increase myocardial O2 demand, precipitates ischemic episodes. In the first beats following rapid pacing, ST segment displacement is inhomogeneously augmented in the LCx territory. Marked ST segment depression (−2 to −6 mV) occurs in some areas, whereas ST elevation (+2 to +15 mV) develops in others (panel C). […] Note that the ST changes, induced by ANG II, occurred at the apical margin of the plaque electrode, i.e., at the periphery of the LCx territory (Panel D). In contrast, the changes induced by transient rapid pacing occurred at a more central location in the LCx territory (panel C).
Note that the ST changes occurred at the apical margin of the plaque electrode (panel B). Thus, the ST segment changes are caused by direct or indirect activation of ganglionated plexus neurons that project efferent axons to the specific ventricular areas in which the changes occurred. […]
Dorsal column activation stabilizes ischemic myocardial electrical dysfunction. […] Four weeks later, under general anesthesia multiple ventricular unipolar electrograms were recorded in the normal and ischemic left ventricle during basal states and when ANG II (40 μg/min; 1 minute) was administered to right atrial neurons before and after DCA. […]

[2] = system: right atrial ganglionated plexus neurons; experiment: Activity of right atrial ganglionated plexus neuron populations during epicardial chemical stimuli; format: in vivo; conditions: ventricular sensory inputs
From the text: Arrow indicates application of veratridine to the epicardium of the left ventricle. At baseline, note the cycling of activity with a periodicity of 20 seconds. In the unstressed condition, this bursting is usually associated with increased coordination of activity between the two populations of neurons (see bottom trace).
Sub-populations of right atrial neurons that receive afferent inputs from sensory neurites in both ventricles are responsive to local mechanical stimuli and the nitric oxide donor nitroprusside. Neurons in at least one ganglionated plexus locus were activated by epicardial application of veratridine, bradykinin, the β1-adrenoceptor agonist prenaterol or the excitatory amino acid glutamate. […] These periods of coupled activity occurred every 30-50 second during basal states, as well as when neuronal activity was enhanced by chemical activation of their ventricular sensory inputs. It has been observed that neurons throughout one intrinsic cardiac ganglionated plexus receive inputs from mechano- and chemo-sensory neurites located in both ventricles. That such neurons respond to multiple chemical stimuli, including those liberated from adjacent adrenergic efferent nerve terminals, indicates the complexity of the integrative processing of information that occurs within the intrinsic cardiac nervous system.
Intraganglionic interactions within the intrinsic cardiac nervous system depend in large part on common shared afferent inputs and/or interconnections mediated via local circuit neurons. In order to evaluate these interactions, separate populations of neurons were recorded in the ventral right atrial ganglionated plexus (RAGP) in basal states and during discrete mechanical and chemical stimuli of ventricular neurites. In basal states, the coherence of activity generated by the two populations of RAGP neurons fluctuated with a periodicity of 30-50 s and with an average peak coherence of 0.88±0.03. Coherence was increased in conjunction with the enhanced neuronal activity evoked during exposure of ventricular sensory inputs to mechanical and chemical (nitroprusside, veratridine, bradykinin, adrenergic agonists or glutamate) stimuli.

[3] = system: right atrial ganglionated plexus; experiment: ISF, aorta and coronary sinus catecholamines (microdialysis) during ANG II infusion into blood supply of the RAGP; format: in vivo, dog
Method: FIGS. 8A-8C show ISF, aorta and coronary sinus norepinephrine (NE) and epinephrine (EPI) levels in response to stellate stimulation (4 Hz), angiotensin II (ANG II) infusion (100 μM, 1 ml/min) into the blood supply for the Right Atrial Ganglionated Plexus (RAGP) and Dorsal Cord Activation (DCA, 50 Hz, 200 μsec, 90% motor threshold). ISF fluids were sampled using the microdialysis techniques summarized in Aim 3.
LV dP/dt correlated with ISF NE release. However, NE spillover into the coronary sinus occurred only during sympathetic efferent neuronal stimulation (FIG. 8C). […] This differential release of catecholamines from cardiac nerves occurred in spite of a 40-fold higher NE compared to EPI content in the dog LV myocardium (237±33 vs. 6.4±1.0 ng/g). […] Dorsal cord activation (FIG. 8B) evoked a release of EPI into the ISF equivalent to stellate stimulation, but with only a modest increase in ISF NE.

[4] = system: canine nodose ganglion afferent neuron; experiment: Nodose ganglion afferent neuron activity after epicardial CPA; format: in vivo; conditions: CPA via 1 cm×1 cm pledget on ventral left ventricular epicardium
Method: Panel B was obtained 1 minute after terminating CPA application.

[5] = system: intracardiac neuron; experiment: Inhibition of ACh-evoked responses by substance P, intracellular recording; format: cell-based; conditions: bath application of 10 μM substance P; 28 ms puffs of ACh 10 mM
Method: Local application of ACh evoked action potentials. These ACh evoked potentials were blocked during bath application of 10 μM substance P (see horizontal bar).

[6] = system: intrinsic cardiac neurons; conditions: direct application; cited from earlier work
[7] = system: intrinsic cardiac neurons; experiment: Activity generated by right atrial (intrinsic cardiac) neurons recorded in situ in anesthetized dogs; format: in vivo, dog; conditions: for enhancement of intrinsic cardiac neuronal activity: epicardial veratridine 7.5 μM
[8] = system: canine intrinsic cardiac neurons; experiment: Intracellular recording of canine intrinsic cardiac neurons in vitro, ACh pulse with or without hexamethonium; format: cell-based; conditions: hexamethonium 100 μM for 5 min in perfusate
Method: The horizontal bar under the traces indicates application of a 10 ms pulse of ACh (1 mM) from the tip of a pipette placed near the ganglion. A, CONTROL. […] DCX. […] During the repolarization phase, the membrane potential began to oscillate with APs being discharged on oscillatory peaks. […] DCX. […] The bursting of activity is reflective of the enhanced muscarinic receptor-mediated responses of these neurons.
Intrinsic cardiac neurons remain responsive to cholinergic synaptic inputs. The cholinergic receptor systems are differentially affected by disruption of nerve inputs to the ICN, with muscarinic responsiveness being enhanced (FIG. 9). Non-cholinergic neurotransmitters can modulate the activity of these neurons. FIG. 10 illustrates the interaction between acetylcholine and the peptide, substance P.

[9] = system: T3 neurons; experiment: T3 neuron activity with intrapericardial bradykinin and glutamate pledget on C1-C2 segments; format: in vivo, rats
From the text: FIGS. 19A-19F show responses of T3 cell to chemical stimulation of glutamate before and after rostral C1 spinal transection. The responses were evoked by intrapericardial injections of bradykinin (BK). Saline was used as the control. Pledgets of glutamate placed on the C1-C2 dorsal spinal cord (B) decreased the discharge rate of the cell for the three minute period it was applied. The background activity recovered after glutamate was removed. […] The presence of glutamate attenuated this response (E). The increased rate of discharge to BK injections was again observed when glutamate was removed (F). In each panel, action potentials were recorded on a rate histogram.
Originally, it was assumed that supraspinal pathways are necessary for descending inhibitory effects of visceral afferents on sensory neurons. […] Thus, it appears that the upper cervical segments play an important role in the hierarchy that controls the efferent outflow to the intrathoracic and intrinsic cardiac nervous system. […]
Descending modulation of thoracic cardiac nociceptive transmission by upper cervical spinal neurons. […] Methods: Extracellular potentials of single T3 neurons were recorded in pentobarbital anesthetized male rats. […]

angiotensin II (DRVYIHPF; Angiotensin-2; UniProt P01019 25-32, looked up) [ANG II]
regional ST segment changes ([1]; ischemic ventricle, 1 minute): increased the area and magnitude
electrical behavior ([1]; normal myocardium): minimal changes
neuronal response to epicardial application [2]: inconsistent neuronal responses
NE concentration in the cardiac interstitial fluid (ISF) ([3]; ANG II 100 μM, 1 ml/min into RAGP blood supply, anesthetized dog): to the same extent as achieved during electrical stimulation of the stellate ganglia
EPI spillover into the coronary sinus ([3]; ANG II stimulation): Neither stellate nor ANG II stimulation evoked EPI spillover

nitroprusside
neuronal response to epicardial application [2]: responsive

OC[C@H]1O[C@@H](n2cnc3c(NC4CCCC4)ncnc32)[C@H](O)[C@@H]1O [CPA]
activity generated by nodose ganglion afferent neuron [4]: enhancement of the activity

substance P (RPKPQQFFGLM-NH2; ends and bridges not checked; UniProt P20366 58-68, looked up)
ACh evoked potentials [5]: blocked

CC(C)NC[C@H](O)COc1ccc(O)cc1 [prenaterol]
neuronal response to epicardial application [2]: activated

NC[C@H](O)c1ccc(O)c(O)c1 [norepinephrine]
identified intrinsic cardiac neurons whose properties are modified [6]: about 25%

CC(C)(C)NCC(O)c1cc(O)cc(O)c1 (centres unmarked) [terbutaline]
neuronal response to epicardial application [2]: inconsistent neuronal responses

COc1ccc(C(=O)O[C@H]2CC[C@@]3(C)[C@@H]4CC[C@H]5[C@]6(O)C[C@H](O)[C@@]7(O)[C@@H](CN8C[C@@H](C)CC[C@H]8[C@@]7(C)O)[C@]6(O)C[C@@]53O[C@]24O)cc1OC [veratridine]
intrinsic cardiac neuronal activity with veratridine ([7]; after application of SCS, four animals, from 11.8±2.5): 16.5±4.6 impulses/min
intrinsic cardiac neuronal activity with veratridine ([7]; after completing the protocols, all 10 dogs, from 25.6±5.7): 40.6±12.5 impulses/min
intrinsic cardiac neuronal activity with veratridine ([7]; before application of SCS, four animals): 40.5±26.7
enhancement of intrinsic cardiac neuronal activity ([7]; after application of SCS, four animals, no significant difference): 39%
enhancement of intrinsic cardiac neuronal activity ([7]; before application of SCS, four animals, P<0.05): 124%
increase of intrinsic cardiac neuronal activity ([7]; epicardial veratridine, after completing the protocols (following SCS and regional ventricular ischaemia), all 10 dogs, P<0.05): 58%

OC[C@@H](O)[C@H]1O[C@@H]2O[C@H](C(Cl)(Cl)Cl)O[C@@H]2[C@H]1O [alpha chloralose]
effect of each bolus on neuronal activity ([7]; dog, in vivo, iv): suppressed neuronal activity for a few minutes

C[N+](C)(C)CCCCCC[N+](C)(C)C [Hexamethonium]
ACh-induced depolarization ([8]; CONTROL neuron): reduced the amplitude of ACh-induced depolarization relative to the control state; no APs were generated
ACh-induced depolarization ([8]; DCX neuron): reduced the amplitude of ACh-induced depolarization; AP discharge was facilitated

N[C@@H](CCC(=O)O)C(=O)O [glutamate]
neuronal response to epicardial application [2]: activated
spontaneous activity of T3 neurons and excitatory inputs from cardiac sensory neurons ([9]; after transection at the rostral C1 spinal cord): still reduced
T3 neurons in which spontaneous activity and/or excitatory responses to intrapericardial bradykinin were inhibited ([9]; glutamate pledget 1 M, 1-3 min, on C1-C2): 77%
